For 34 compounds, IC50 results are on record in patent US10189788B2, “Substituted N,2-diarylquinoline-4-carboxamides and the use thereof as anti-inflammatory agents” (BAYER PHARMA AKTIENGESELLSCHAFT, priority 2014, dated 2019).

The assay deals with Human FP Receptor (Homo sapiens (Human), UniProt P43088). Kind of assay: In vitro test of inhibition of human FP receptor activity, variant B-1A (PGF2α-induced calcium flux in FP-expressing CHEM1 cells). The assay is classed as cell-based. Particulars: calcium flux induced by 3 nM PGF2α, Fluo-8, some mean values from multiple determinations. An excerpt: • BSA bovine serum albumin • CRTH2 chemoattractant receptor-homologous molecule expressed on T helper type 2 cells • DMEM Dulbecco's modified Eagle's medium • DMSO dimethyl sulfoxide • DP PGD2 receptor • EC50 half-maximum effective concentration • em. emission • EP PGE2 receptor • ex. excitation • FCS fetal calf serum • FP PGF2α receptor • HEPES 2-[4-(2-hydroxyethyl)piperazin-1-yl]ethanesulfonic acid • IC50 half-maximum inhibitory concentration • IP PGI2 receptor • MES 2-(N-morpholino)ethanesulfonic acid • Pen/Strep penicillin/streptomycin • PGD2 prostaglandin D2 • PGE2 prostaglandin E2 • PGF2α prostaglandin F2α • PGI2 prostaglandin […] • TC tissue culture • TP thromboxane A2 receptor • Tris tris(hydroxymethyl)aminomethane • v/v volume to volume ratio (of a solution) • w/w weight to weight ratio (of a solution) B-1.
Chain of Human FP Receptor (P43088 whole entry): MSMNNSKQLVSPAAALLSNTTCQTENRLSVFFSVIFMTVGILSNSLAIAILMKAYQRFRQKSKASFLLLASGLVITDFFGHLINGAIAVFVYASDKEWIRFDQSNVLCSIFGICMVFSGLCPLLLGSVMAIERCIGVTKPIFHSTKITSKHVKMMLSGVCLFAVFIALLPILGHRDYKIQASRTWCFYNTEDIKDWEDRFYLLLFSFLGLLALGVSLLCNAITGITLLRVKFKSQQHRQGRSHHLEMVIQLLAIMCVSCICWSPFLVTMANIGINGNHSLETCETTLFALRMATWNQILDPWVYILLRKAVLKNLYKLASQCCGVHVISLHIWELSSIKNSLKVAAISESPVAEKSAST
A general note: Calcium assays in cells follow changes in intracellular calcium, usually with a dye or a luminescent sensor.
On to `Cc1c(-c2ccccc2)nc2ccc(Br)c(Cl)c2c1C(=O)Nc1ccc(C(=O)O)cc1F` [Example 55, 4-{[(6-Bromo-5-chloro-3-methyl-2-phenylquinolin-4-yl)carbonyl]amino}-3-fluorobenzoic acid], for which the IC50 came out at 49 nM.

Regarding `O=C(O)c1ccc(NC(=O)c2c(CF)c(-c3ccccc3)nc3ccc(Br)cc23)c(F)c1` [Example 37, 4-({[6-Bromo-3-(fluoromethyl)-2-phenylquinolin-4-yl]carbonyl}amino)-3-fluorobenzoic acid], the IC50 was determined as 39 nM.

For the compound `O=C(O)c1ccc(NC(=O)c2c(C(F)F)c(-c3ccccc3)nc3ccc(Br)cc23)c(F)c1` [Example 38, 4-({[6-Bromo-3-(difluoromethyl)-2-phenylquinolin-4-yl]carbonyl}amino)-3-fluorobenzoic acid], the IC50 stood at 265 nM.

On to `Cc1c(-c2ccccc2)nc2ccc(Br)cc2c1C(=O)Nc1ccc(C(N)=O)cc1F` [Example 48, 6-Bromo-N-(4-carbamoyl-2-fluorophenyl)-3-methyl-2-phenylquinoline-4-carboxamide], for which the concentration for half-maximal inhibition (IC50) came to 102 nM.

As to `Cc1c(-c2ccccc2)nc2ccc(Br)cc2c1C(=O)Nc1cc(F)c(C(=O)O)cc1F` [Example 66, 4-{[(6-Bromo-3-methyl-2-phenylquinolin-4-yl)carbonyl]amino}-2,5-difluorobenzoic acid], the IC50 was 282 nM.

On to `Cc1c(-c2ccccc2)nc2ccc([Si](C)(C)C)cc2c1C(=O)Nc1ccc(C(=O)O)cc1F` [Example 36, 3-Fluoro-4-({[3-methyl-2-phenyl-6-(trimethylsilyl)quinolin-4-yl]carbonyl}amino)benzoic acid], for which the IC50 is 78 nM.

As to `O=C(O)c1ccc(NC(=O)c2c(C(F)(F)F)c(-c3ccccc3)nc3ccc(Br)cc23)c(F)c1` [Example 57, 4-({[6-Bromo-2-phenyl-3-(trifluoromethyl)quinolin-4-yl]carbonyl}amino)-3-fluorobenzoic acid], the IC50 amounted to 437 nM.

As to `Cc1c(-c2ccccc2)nc2ccc(C(F)F)cc2c1C(=O)Nc1ccc(C(=O)O)cc1F` [Example 64, 4-({[6-(Difluoromethyl)-3-methyl-2-phenylquinolin-4-yl]carbonyl}amino)-3-fluorobenzoic acid], the IC50 is 362 nM.

Consider `Cc1c(-c2ccccc2)nc2ccc(Br)cc2c1C(=O)Nc1cnc(C(=O)O)nc1` [Example 4, 5-{[(6-Bromo-3-methyl-2-phenylquinolin-4-yl)carbonyl]amino}pyrimidine-2-carboxylic acid], for which the IC50 came out at 880 nM.

Regarding `Cc1c(-c2ccccc2)nc2ccc(Br)cc2c1C(=O)Nc1ccc(C(=O)O)cc1N` [Example 18, 3-Amino-4-{[(6-bromo-3-methyl-2-phenylquinolin-4-yl)carbonyl]amino}benzoic acid], the IC50 stood at 335 nM.

On to `O=C(O)c1ccc(NC(=O)c2c(C3CC3)c(-c3ccccc3)nc3ccc(Br)cc23)c(F)c1` [Example 77, 4-{[(6-Bromo-3-cyclopropyl-2-phenylquinolin-4-yl)carbonyl]amino}-3-fluorobenzoic acid], for which the IC50 was found to be 27 nM.

Consider `Cc1c(-c2ccccc2)nc2c(C)cc(Br)cc2c1C(=O)Nc1ccc(C(=O)O)cc1F` [Example 78, 4-{[(6-Bromo-3,8-dimethyl-2-phenylquinolin-4-yl)carbonyl]amino}-3-fluorobenzoic acid], for which the IC50 was found to be 154 nM.

Consider `Cc1c(-c2ccccc2)nc2ccc(Cl)cc2c1C(=O)Nc1ccc(C(=O)O)cc1F` [Example 59, 4-{[(6-Chloro-3-methyl-2-phenylquinolin-4-yl)carbonyl]amino}-3-fluorobenzoic acid], for which the IC50 came out at 203 nM.

`CCc1ccc2nc(-c3ccccc3)c(C)c(C(=O)Nc3ccc(C(=O)O)cc3F)c2c1` [Example 32, 4-{[(6-Ethyl-3-methyl-2-phenylquinolin-4-yl)carbonyl]amino}-3-fluorobenzoic acid]: the IC50 amounted to 245 nM.

For `Cc1c(-c2ccccc2)nc2ccc(Br)cc2c1C(=O)Nc1ncc(C(=O)O)cc1F` [Example 6, 6-{[(6-Bromo-3-methyl-2-phenylquinolin-4-yl)carbonyl]amino}-5-fluoronicotinic acid], the IC50 was determined as 79 nM.

Turning to `Cc1c(-c2ccccc2)nc2c(C)cc(Br)cc2c1C(=O)Nc1ccc(C(=O)O)cc1` [Example 58, 4-{[(6-Bromo-3,8-dimethyl-2-phenylquinolin-4-yl)carbonyl]amino}benzoic acid], the IC50 came out at 557 nM.

Regarding `Cc1c(-c2ccccc2)nc2ccc(S(F)(F)(F)(F)F)cc2c1C(=O)Nc1ccc(C(=O)O)cc1F` [Example 63, 3-Fluoro-4-({[3-methyl-6-(pentafluoro-λ^6-sulfanyl)-2-phenylquinolin-4-yl]carbonyl}amino)benzoic acid], the IC50 worked out at 246 nM.

Consider `Cc1c(-c2ccccc2)nc2ccc(Br)cc2c1C(=O)Nc1ccc(C(=O)O)cc1C#N` [Example 16, 4-{[(6-Bromo-3-methyl-2-phenylquinolin-4-yl)carbonyl]amino}-3-cyanobenzoic acid], for which the IC50 was 278 nM.

`Cc1c(-c2ccccc2)nc2ccc(I)cc2c1C(=O)Nc1ccc(C(=O)O)cc1F` [Example 30, 3-Fluoro-4-{[(6-iodo-3-methyl-2-phenylquinolin-4-yl)carbonyl]amino}benzoic acid]: the IC50 worked out at 6 nM.

`O=C(O)c1cc(F)c(NC(=O)c2c(C(F)(F)F)c(-c3ccccc3)nc3ccc(Br)cc23)c(Br)c1` [Example 62, 3-Bromo-4-({[6-bromo-2-phenyl-3-(trifluoromethyl)quinolin-4-yl]carbonyl}amino)-5-fluorobenzoic acid]: the half-inhibitory concentration (IC50) came out at 301 nM.

Consider `Cc1c(-c2ccccc2)nc2ccc(Br)cc2c1C(=O)Nc1ccc(C(=O)O)cc1S(=O)(=O)C(F)(F)F` [Example 53, 4-{[(6-Bromo-3-methyl-2-phenylquinolin-4-yl)carbonyl]amino}-3-[(trifluoromethyl)sulfonyl]benzoic acid], for which the IC50 turned out to be 31 nM.

Take `Cc1c(-c2ccccc2)nc2cc(Cl)c(Br)cc2c1C(=O)Nc1ccc(C(=O)O)cc1F` [Example 41, 4-{[(6-Bromo-7-chloro-3-methyl-2-phenylquinolin-4-yl)carbonyl]amino}-3-fluorobenzoic acid]: the IC50 was 25 nM.

Consider `CCS(=O)(=O)c1cc(C(=O)O)c(OC)cc1NC(=O)c1c(C)c(-c2ccccc2)nc2ccc(Br)cc12` [Example 27, 4-{[(6-Bromo-3-methyl-2-phenylquinolin-4-yl)carbonyl]amino}-5-(ethylsulfonyl)-2-methoxybenzoic acid], for which the IC50 worked out at 97 nM.

`Cc1c(-c2ccccc2)nc2cc(Cl)c(Cl)cc2c1C(=O)Nc1ccc(C(=O)O)cc1F` [Example 42, 4-{[(6,7-Dichloro-3-methyl-2-phenylquinolin-4-yl)carbonyl]amino}-3-fluorobenzoic acid]: the IC50 turned out to be 33 nM.

`Cc1c(-c2cccc(F)c2)nc2ccc(Br)cc2c1C(=O)Nc1ccc(C(=O)O)cc1F` [Example 44, 4-({[6-Bromo-2-(3-fluorophenyl)-3-methylquinolin-4-yl]carbonyl}amino)-3-fluorobenzoic acid]: the IC50 is 33 nM.

Consider `Cc1c(C(=O)Nc2ccc(C(=O)O)cc2SC(F)(F)F)c2cc(Br)ccc2[n+]([O-])c1-c1ccccc1` [Example 54, 4-{[(6-Bromo-3-methyl-1-oxido-2-phenylquinolin-4-yl)carbonyl]amino}-3-[(trifluoromethyl)sulfanyl]benzoic acid], for which the IC50 was 102 nM.

In the case of `Cc1c(-c2ccccc2F)nc2ccc(Br)cc2c1C(=O)Nc1ccc(C(=O)O)cc1F` [Example 45, 4-({[6-Bromo-2-(2-fluorophenyl)-3-methylquinolin-4-yl]carbonyl}amino)-3-fluorobenzoic acid], the IC50 is 205 nM.

With `Cc1c(-c2ccccc2)nc2ccc(Br)cc2c1C(=O)Nc1ccc(C(=O)O)cc1S(C)(=O)=O` [Example 26, 4-{[(6-Bromo-3-methyl-2-phenylquinolin-4-yl)carbonyl]amino}-3-(methylsulfonyl)benzoic acid], the IC50 is 86 nM.

For `Cc1ccc2nc(-c3ccccc3)c(C)c(C(=O)Nc3ccc(C(=O)O)cc3F)c2c1` [Example 31, 4-{[(3,6-Dimethyl-2-phenylquinolin-4-yl)carbonyl]amino}-3-fluorobenzoic acid], the concentration for half-maximal inhibition (IC50) came out at 165 nM.

For the compound `CCc1c(-c2ccccc2)nc2ccc(Br)cc2c1C(=O)Nc1ccc(C(=O)O)cc1F` [Example 39, 4-{[(6-Bromo-3-ethyl-2-phenylquinolin-4-yl)carbonyl]amino}-3-fluorobenzoic acid], the concentration for half-maximal inhibition (IC50) came out at 190 nM.

Take `Cc1c(C(=O)Nc2ccc(C(=O)O)cc2F)c2cc(Br)ccc2[n+]([O-])c1-c1ccccc1` [Example 49, 4-{[(6-Bromo-3-methyl-1-oxido-2-phenylquinolin-4-yl)carbonyl]amino}-3-fluorobenzoic acid]: the 50% inhibitory concentration (IC50) turned out to be 120 nM.

As for `Cc1c(-c2ccccc2)nc2ccc(C(F)(F)F)cc2c1C(=O)Nc1ccc(C(=O)O)cc1F` [Example 34, 3-Fluoro-4-({[3-methyl-2-phenyl-6-(trifluoromethyl)quinolin-4-yl]carbonyl}amino)benzoic acid], the IC50 amounted to 93 nM.

Consider `Cc1c(-c2ccccc2)nc2ccc(Br)cc2c1C(=O)Nc1ccc(C(=O)O)cc1Cl` [Example 9, 4-{[(6-Bromo-3-methyl-2-phenylquinolin-4-yl)carbonyl]amino}-3-chlorobenzoic acid], for which the IC50 amounted to 65 nM.

On to `Cc1c(-c2ccccc2)nc2ccc(OC(F)(F)F)cc2c1C(=O)Nc1ccc(C(=O)O)cc1F` [Example 35, 3-Fluoro-4-({[3-methyl-2-phenyl-6-(trifluoromethoxy)quinolin-4-yl]carbonyl}amino)benzoic acid], for which the IC50 came to 290 nM.

Broadly, the IC50 is the midpoint of a concentration-inhibition curve.
